Laboratory results from patent US20220389061A1, “IMMUNOMODULATORS” (priority 2019, published 2022).
Read-outs that look alike come from different tables or passages of the source. Starred links: 1 amine or outer side, 2 acyl side, 3 side chain; linkers in the order of their positions; H or OH if unused. Positions of bridges follow the written chain, without caps; N, C: chain ends. Non-standard residues stand in square brackets, D forms with d. Residues, ends and D or L forms follow the SMILES beside them. Groups on a side chain read outwards from the residue. *: point of attachment. Trp(1-CH2CO2Me) = COC(=O)Cn1cc(C[C@H](N)C(=O)O)c2ccccc21; Trp(1-CH2COOH) = N[C@@H](Cc1cn(CC(=O)O)c2ccccc12)C(=O)O; NH(3,5-Cl2-phenyl) = Clc1cc(Cl)cc(N*)c1; X38 = N#Cc1c[nH]c2c(NC(=S)*)cccc12; X31 = S=C(Nc1cccc2c(Cl)c[nH]c12)*; Hyp = O=C(O)[C@@H]1C[C@@H](O)CN1; X33 = Cc1cc2ccc(NC(=S)*)cc2[nH]1; X35 = Cc1n[nH]c2c(NC(=S)*)cccc12; X10 = S=C(Nc1ccc(N2CCOCC2)cc1)*; X78 = S=C(Nc1c(Cl)cc(Cl)cc1Cl)*; X84 = COc1cc(NC(=S)*)cc(OC)c1OC; X11 = S=C(Nc1ccccc1-c1ccccc1)*; NMeNle = CCCC[C@H](NC)C(=O)O; X7 = S=C(Nc1ccc2cc[nH]c2c1)*; X54 = S=C(Nc1cccc2ncccc12)*; NMeA = CN[C@@H](C)C(=O)O; βNA = c1ccc2cc(N*)ccc2c1; Dab = NCC[C@H](N)C(=O)O; Dap = NC[C@H](N)C(=O)O; X15 = Cc1ccc(Cl)cc1N*; CO = O=C([*:1])[*:2]

Molecular target: T1, PD-1/PD-L1 (Homo sapiens, UniProt Q9NZQ7)
T1 construct: TVMV protease site linker (C); made in house; host or cells: HEK293T cells
T1 sequence (Q9NZQ7 18-239): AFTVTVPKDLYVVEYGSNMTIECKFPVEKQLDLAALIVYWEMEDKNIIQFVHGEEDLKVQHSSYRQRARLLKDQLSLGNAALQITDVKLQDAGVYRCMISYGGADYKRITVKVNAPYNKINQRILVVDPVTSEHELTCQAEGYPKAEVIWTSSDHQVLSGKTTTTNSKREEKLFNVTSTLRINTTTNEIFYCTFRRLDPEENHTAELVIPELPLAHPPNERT
Assay: PD-1/PD-L1 Homogenous Time-Resolved Fluorescence (HTRF) binding assay
Summary of the method: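 HTRF read-out using europium cryptate anti-Ig (1 nM) and APC anti-His (20 nM) on extracellular-domain fusion proteins in dPBS/0.1% BSA/0.05% Tween-20. Inhibitor first incubated 15 min with 10 nM PD-L1-His, followed by 20 nM PD-1-Ig for another 15 min.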

[1] = PD-L1-His 10 nM pre-incubated with inhibitor, PD-1-Ig 20 nM, read-out: HTRF IC50

Row | Compound | IC50 [1] | IC50
1 | CCCC[C@H]1C(=O)N(C)[C@@H](CCCC)C(=O)N[C@@H](CC(C)C)C(=O)N[C@H](C(=O)NCC(N)=O)CSCC(=O)N[C@@H](Cc2ccc(O)cc2)C(=O)N(C)[C@@H](C)C(=O)N[C@@H](CC(N)=O)C(=O)N2CCC[C@H]2C(=O)N[C@@H](CNC(=O)Nc2cc(Cl)ccc2C)C(=O)N[C@@H](CC(C)C)C(=O)N2C[C@H](O)C[C@H]2C(=O)N[C@@H](Cc2c[nH]c3ccccc23)C(=O)N[C@@H](CCN)C(=O)N[C@@H](Cc2cn(CC(=O)O)c3ccccc23)C(=O)N1C [Example 1106] ({CH2CO}-Y[NMeA]NP[Dap]([CO-X15])L[Hyp]W[Dab][Trp(1-CH2COOH)][NMeNle][NMeNle]LCG-NH2; thioether N-14) | 9.98 nM | –
2 | CCCC[C@H]1C(=O)N(C)[C@@H](CCCC)C(=O)N[C@@H](CC(C)C)C(=O)N[C@H](C(=O)NCC(N)=O)CSCC(=O)N[C@@H](Cc2ccc(O)cc2)C(=O)N(C)[C@@H](C)C(=O)N[C@@H](CC(N)=O)C(=O)N2CCC[C@H]2C(=O)N[C@@H](CNC(=S)Nc2ccccc2-c2ccccc2)C(=O)N[C@@H](CC(C)C)C(=O)N2C[C@H](O)C[C@H]2C(=O)N[C@@H](Cc2c[nH]c3ccccc23)C(=O)N[C@@H](CCN)C(=O)N[C@@H](Cc2cn(CC(=O)O)c3ccccc23)C(=O)N1C [Example 1085] ({CH2CO}-Y[NMeA]NP[Dap](X11)L[Hyp]W[Dab][Trp(1-CH2COOH)][NMeNle][NMeNle]LCG-NH2; thioether N-14) | 3.8 nM | –
3 | CCCC[C@H]1C(=O)N(C)[C@@H](CCCC)C(=O)N[C@@H](CC(C)C)C(=O)N[C@H](C(=O)NCC(N)=O)CSCC(=O)N[C@@H](Cc2ccc(O)cc2)C(=O)N(C)[C@@H](C)C(=O)N[C@@H](CC(N)=O)C(=O)N2CCC[C@H]2C(=O)N[C@@H](CNC(=O)Nc2ccc3ccccc3c2)C(=O)N[C@@H](CC(C)C)C(=O)N2C[C@H](O)C[C@H]2C(=O)N[C@@H](Cc2c[nH]c3ccccc23)C(=O)N[C@@H](CCN)C(=O)N[C@@H](Cc2cn(CC(=O)O)c3ccccc23)C(=O)N1C [Example 3043] ({CH2CO}-Y[NMeA]NP[Dap]([CO-βNA])L[Hyp]W[Dab][Trp(1-CH2COOH)][NMeNle][NMeNle]LCG-NH2; thioether N-14) | – | 3.2 nM
4 | CCCC[C@H]1C(=O)N(C)[C@@H](CCCC)C(=O)N[C@@H](CC(C)C)C(=O)N[C@H](C(=O)NCC(N)=O)CSCC(=O)N[C@@H](Cc2ccc(O)cc2)C(=O)N(C)[C@@H](C)C(=O)N[C@@H](CC(N)=O)C(=O)N2CCC[C@H]2C(=O)N[C@@H](CNC(=S)Nc2ccc3cc[nH]c3c2)C(=O)N[C@@H](CC(C)C)C(=O)N2C[C@H](O)C[C@H]2C(=O)N[C@@H](Cc2c[nH]c3ccccc23)C(=O)N[C@@H](CCNC(=S)Nc2ccc3cc[nH]c3c2)C(=O)N[C@@H](Cc2cn(CC(=O)O)c3ccccc23)C(=O)N1C [Example 3068] ({CH2CO}-Y[NMeA]NP[Dap](X7)L[Hyp]W[Dab](X7)[Trp(1-CH2COOH)][NMeNle][NMeNle]LCG-NH2; thioether N-14) | 2 nM | –
5 | CCCC[C@H]1C(=O)N(C)[C@@H](CCCC)C(=O)N[C@@H](CC(C)C)C(=O)N[C@H](C(=O)NCC(N)=O)CSCC(=O)N[C@@H](Cc2ccc(O)cc2)C(=O)N(C)[C@@H](C)C(=O)N[C@@H](CC(N)=O)C(=O)N2CCC[C@H]2C(=O)N[C@@H](CNC(=S)Nc2ccc(N3CCOCC3)cc2)C(=O)N[C@@H](CC(C)C)C(=O)N2C[C@H](O)C[C@H]2C(=O)N[C@@H](Cc2c[nH]c3ccccc23)C(=O)N[C@@H](CCN)C(=O)N[C@@H](Cc2cn(CC(=O)OC)c3ccccc23)C(=O)N1C [Example 1053] ({CH2CO}-Y[NMeA]NP[Dap](X10)L[Hyp]W[Dab][Trp(1-CH2CO2Me)][NMeNle][NMeNle]LCG-NH2; thioether N-14) | 3.2 nM | –
6 | CCCC[C@H]1C(=O)N(C)[C@@H](CCCC)C(=O)N[C@@H](CC(C)C)C(=O)N[C@H](C(=O)NCC(N)=O)CSCC(=O)N[C@@H](Cc2ccc(O)cc2)C(=O)N(C)[C@@H](C)C(=O)N[C@@H](CC(N)=O)C(=O)N2CCC[C@H]2C(=O)N[C@@H](CNC(=O)Nc2cc(Cl)cc(Cl)c2)C(=O)N[C@@H](CC(C)C)C(=O)N2C[C@H](O)C[C@H]2C(=O)N[C@@H](Cc2c[nH]c3ccccc23)C(=O)N[C@@H](CCN)C(=O)N[C@@H](Cc2cn(CC(=O)O)c3ccccc23)C(=O)N1C [Example 1068] ({CH2CO}-Y[NMeA]NP[Dap]([CO-NH(3,5-Cl2-phenyl)])L[Hyp]W[Dab][Trp(1-CH2COOH)][NMeNle][NMeNle]LCG-NH2; thioether N-14) | – | 4.3 nM
7 | CCCC[C@H]1C(=O)N(C)[C@@H](CCCC)C(=O)N[C@@H](CC(C)C)C(=O)N[C@H](C(=O)NCC(N)=O)CSCC(=O)N[C@@H](Cc2ccc(O)cc2)C(=O)N(C)[C@@H](C)C(=O)N[C@@H](CC(N)=O)C(=O)N2CCC[C@H]2C(=O)N[C@@H](CNC(=S)Nc2cccc3c(C#N)c[nH]c23)C(=O)N[C@@H](CC(C)C)C(=O)N2C[C@H](O)C[C@H]2C(=O)N[C@@H](Cc2c[nH]c3ccccc23)C(=O)N[C@@H](CCN)C(=O)N[C@@H](Cc2cn(CC(=O)O)c3ccccc23)C(=O)N1C [Example 3067] ({CH2CO}-Y[NMeA]NP[Dap](X38)L[Hyp]W[Dab][Trp(1-CH2COOH)][NMeNle][NMeNle]LCG-NH2; thioether N-14) | 5.2 nM | –
8 | CCCC[C@H]1C(=O)N(C)[C@@H](CCCC)C(=O)N[C@@H](CC(C)C)C(=O)N[C@H](C(=O)NCC(N)=O)CSCC(=O)N[C@@H](Cc2ccc(O)cc2)C(=O)N(C)[C@@H](C)C(=O)N[C@@H](CC(N)=O)C(=O)N2CCC[C@H]2C(=O)N[C@@H](CNC(=S)Nc2c(Cl)cc(Cl)cc2Cl)C(=O)N[C@@H](CC(C)C)C(=O)N2C[C@H](O)C[C@H]2C(=O)N[C@@H](Cc2c[nH]c3ccccc23)C(=O)N[C@@H](CCNC(=S)Nc2c(Cl)cc(Cl)cc2Cl)C(=O)N[C@@H](Cc2cn(CC(=O)O)c3ccccc23)C(=O)N1C [Example 1077] ({CH2CO}-Y[NMeA]NP[Dap](X78)L[Hyp]W[Dab](X78)[Trp(1-CH2COOH)][NMeNle][NMeNle]LCG-NH2; thioether N-14) | 5.7 nM | –
9 | CCCC[C@H]1C(=O)N(C)[C@@H](CCCC)C(=O)N[C@@H](CC(C)C)C(=O)N[C@H](C(=O)NCC(N)=O)CSCC(=O)N[C@@H](Cc2ccc(O)cc2)C(=O)N(C)[C@@H](C)C(=O)N[C@@H](CC(N)=O)C(=O)N2CCC[C@H]2C(=O)N[C@@H](CNC(=S)Nc2cccc3c(Cl)c[nH]c23)C(=O)N[C@@H](CC(C)C)C(=O)N2C[C@H](O)C[C@H]2C(=O)N[C@@H](Cc2c[nH]c3ccccc23)C(=O)N[C@@H](CCNC(=S)Nc2cccc3c(Cl)c[nH]c23)C(=O)N[C@@H](Cc2cn(CC(=O)O)c3ccccc23)C(=O)N1C [Example 3019] ({CH2CO}-Y[NMeA]NP[Dap](X31)L[Hyp]W[Dab](X31)[Trp(1-CH2COOH)][NMeNle][NMeNle]LCG-NH2; thioether N-14) | 3.3 nM | –

More lines, in order of falling IC50 [1], values ahead:

Row | IC50 [1] | Compound | IC50
10 | 4.6 nM | CCCC[C@H]1C(=O)N(C)[C@@H](CCCC)C(=O)N[C@@H](CC(C)C)C(=O)N[C@H](C(=O)NCC(N)=O)CSCC(=O)N[C@@H](Cc2ccc(O)cc2)C(=O)N(C)[C@@H](C)C(=O)N[C@@H](CC(N)=O)C(=O)N2CCC[C@H]2C(=O)N[C@@H](CNC(=S)Nc2cccc3c(C)n[nH]c23)C(=O)N[C@@H](CC(C)C)C(=O)N2C[C@H](O)C[C@H]2C(=O)N[C@@H](Cc2c[nH]c3ccccc23)C(=O)N[C@@H](CCN)C(=O)N[C@@H](Cc2cn(CC(=O)O)c3ccccc23)C(=O)N1C [Example 3066] ({CH2CO}-Y[NMeA]NP[Dap](X35)L[Hyp]W[Dab][Trp(1-CH2COOH)][NMeNle][NMeNle]LCG-NH2; thioether N-14) | –
11 | 3.2 nM | CCCC[C@H]1C(=O)N(C)[C@@H](CCCC)C(=O)N[C@@H](CC(C)C)C(=O)N[C@H](C(=O)NCC(N)=O)CSCC(=O)N[C@@H](Cc2ccc(O)cc2)C(=O)N(C)[C@@H](C)C(=O)N[C@@H](CC(N)=O)C(=O)N2CCC[C@H]2C(=O)N[C@@H](CNC(=S)Nc2cccc3ncccc23)C(=O)N[C@@H](CC(C)C)C(=O)N2C[C@H](O)C[C@H]2C(=O)N[C@@H](Cc2c[nH]c3ccccc23)C(=O)N[C@@H](CCNC(=S)Nc2cccc3ncccc23)C(=O)N[C@@H](Cc2cn(CC(=O)O)c3ccccc23)C(=O)N1C [Example 3024] ({CH2CO}-Y[NMeA]NP[Dap](X54)L[Hyp]W[Dab](X54)[Trp(1-CH2COOH)][NMeNle][NMeNle]LCG-NH2; thioether N-14) | –
12 | 3 nM | CCCC[C@H]1C(=O)N(C)[C@@H](CCCC)C(=O)N[C@@H](CC(C)C)C(=O)N[C@H](C(=O)NCC(N)=O)CSCC(=O)N[C@@H](Cc2ccc(O)cc2)C(=O)N(C)[C@@H](C)C(=O)N[C@@H](CC(N)=O)C(=O)N2CCC[C@H]2C(=O)N[C@@H](CNC(=S)Nc2ccc3cc(C)[nH]c3c2)C(=O)N[C@@H](CC(C)C)C(=O)N2C[C@H](O)C[C@H]2C(=O)N[C@@H](Cc2c[nH]c3ccccc23)C(=O)N[C@@H](CCN)C(=O)N[C@@H](Cc2cn(CC(=O)O)c3ccccc23)C(=O)N1C [Example 3048] ({CH2CO}-Y[NMeA]NP[Dap](X33)L[Hyp]W[Dab][Trp(1-CH2COOH)][NMeNle][NMeNle]LCG-NH2; thioether N-14) | –
13 | 2.8 nM | CCCC[C@H]1C(=O)N(C)[C@@H](CCCC)C(=O)N[C@@H](CC(C)C)C(=O)N[C@H](C(=O)NCC(N)=O)CSCC(=O)N[C@@H](Cc2ccc(O)cc2)C(=O)N(C)[C@@H](C)C(=O)N[C@@H](CC(N)=O)C(=O)N2CCC[C@H]2C(=O)N[C@@H](CNC(=S)Nc2cc(OC)c(OC)c(OC)c2)C(=O)N[C@@H](CC(C)C)C(=O)N2C[C@H](O)C[C@H]2C(=O)N[C@@H](Cc2c[nH]c3ccccc23)C(=O)N[C@@H](CCN)C(=O)N[C@@H](Cc2cn(CC(=O)O)c3ccccc23)C(=O)N1C [Example 1065] ({CH2CO}-Y[NMeA]NP[Dap](X84)L[Hyp]W[Dab][Trp(1-CH2COOH)][NMeNle][NMeNle]LCG-NH2; thioether N-14) | –
